In one test the target is T1, SphK1 R57A (Homo sapiens, UniProt Q9NYA1, R57A).
T1 construct: His (N); made in house
Nature of the test: filter binding assay of [3H] acetyl-CoA to SphK1. The source says:
(§1) Single point mutations in SphK1 (R56A, R57A, R24A, R185A, D178A, and F192A) and COX2 (S565A, N181A, T564A, and S567A) were generated using the In-Fusion Cloning Kits (Clontech) and ORF cDNA expression plasmids of human SphK1 and COX2 gene (Sino Biological Inc, HG15679-NH and HG12036-NH), according to the manufacturer’s instructions. The forward and reverse primers described in Supplementary Table 4. The SphK1 WT, SphK1 mutants, COX2 WT, and COX2 mutant plasmids were transformed in the One shot TOP 10 competent cell (Invitrogen). The bacteria were grown in Luria-Bertani (LB, Invitrogen) plates supplemented with 50 μg ml^−1 kanamycin (Sigma-Aldrich) at 37 °C. The bacterial cell pellets were resuspended in lysis buffer containing 20 mM sodium phosphate (GE Healthcare), 500 mM NaCl (GE Healthcare), 20 mM imidazole (pH 7.4) (GE Healthcare), 0.2 mg ml^−1 lysozyme (Sigma-Aldrich), 20 μg ml^−1 DNase I (Roche), 1 mM MgCl2 (Sigma-Aldrich), and 1 mM PMSF (Sigma-Aldrich) before being lysed by sonication and clarified by centrifugation at 15,493×g for 10 min. Proteins were purified from the soluble fraction using His-Spin Trap columns (GE Healthcare) and the binding and acetylation assays were performed.
(§2) Briefly, SphK1 WT and mutant enzymes (1 mU) were resuspended in 100 μl reaction buffer (20 mM HEPES; pH 7.4, 50 mM NaCl, 10 mM MgCl2, 1 mM EGTA, 0.02% Triton-X100, and 100 μM sphingosine, all from Sigma-Aldrich). […] Briefly, COX2 WT and mutant enzymes (1 mU) were resuspended in 100 μl reaction buffer (20 mM HEPES; pH 7.4, 50 mM NaCl, 10 mM MgCl2, 1 mM EGTA, and 0.02% Triton-X100, all from Sigma-Aldrich). Reactions were initiated by adding [^14C] N-AS (1–200 μM (0.1–20 μCi), ARC UK Ltd, ARC-1024) and incubated at 37 °C for 1 h. The reactions were terminated by adding 100 μl of ice-cold reaction buffer containing 5 mM cold N-AS and immediately filtered through P30 filtermat (Perkin-Elmer), followed by five washes.
(§3) The binding velocity was plotted and the Kcat and KM values were calculated from the Michaelis-Menten analysis using the Sigma-plot program (ver 10.0, Systat software Inc.).

A further test deals with T2, SphK1 R185A (Homo sapiens, UniProt Q9NYA1, R185A).
T2 construct: His (N); made in house
T2 sequence (Q9NYA1 whole entry R185A): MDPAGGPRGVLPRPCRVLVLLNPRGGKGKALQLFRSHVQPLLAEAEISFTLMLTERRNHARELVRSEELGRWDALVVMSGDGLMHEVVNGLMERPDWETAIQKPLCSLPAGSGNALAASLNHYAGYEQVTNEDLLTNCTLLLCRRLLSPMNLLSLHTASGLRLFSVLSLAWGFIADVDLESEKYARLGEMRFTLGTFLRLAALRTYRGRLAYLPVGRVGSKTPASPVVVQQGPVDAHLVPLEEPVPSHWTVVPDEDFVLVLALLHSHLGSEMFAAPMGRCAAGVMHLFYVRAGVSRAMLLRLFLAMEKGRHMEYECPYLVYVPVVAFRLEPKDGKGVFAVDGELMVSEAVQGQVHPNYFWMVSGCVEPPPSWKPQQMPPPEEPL
Nature of the test: filter binding assay of [3H] acetyl-CoA to SphK1.
Text: as §1, §2, §3

Another test relates to 5×FAD mice. Nature of the test: ThioS Aβ plaque area and plaque morphometry (Supplementary Fig 8b,c). It is filed as in vivo, mouse. As to the method:
(§4) Thioflavin S (Sigma-Aldrich) staining was carried out according to previously described procedures. We used 6E10 (mouse, 1:100, Signet, SIG39300), anti-20G10 (mouse, 1:1000, provided by D. R. Howlett, GlaxoSmithKline, Harlow, Essex, UK) for Aβ42, anti-G30 (rabbit, 1:1000, provided by D. R. Howlett) for Aβ40, SMA (mouse, 1:400, Sigma-Aldrich, A2547), AT8 (mouse, 1:500, Thermo Fisher Scientific, MN1020), Caspase-3 (mouse, 1:200, Novus Biologicals, NB100-56708), ac-S565 (rabbit, 1:100), COX2 (mouse, 1:250, Thermo Fisher Scientific, 35-8200), Iba1 (rabbit, 1:500, Wako, 019-19941 and goat, Abcam, ab5076), NeuN (mouse, 1:500, Millipore, MAB177), GFAP (rabbit, 1:500, Dako, N1506 and chicken, 1:500, Abcam, ab4674), and Lamp1 (mouse, 1:200, Abcam, ab24170). The sections were analyzed with a laser-scanning confocal microscope (FV3000; Olympus) or with a BX51 microscope (Olympus). MetaMorph software (Molecular Devices) was used to quantification. Three-dimensional reconstruction of microglia was recorded and analyzed using IMARIS software (Bitplane)[11]. For the analysis of age-dependent microglial COX2^+ CX3CR1^+ cells in WT and APP/PS1 mice, COX2 (rabbit, 1:100, Abcam, ab15191) and CX3CR1 (mouse, 1:100, BioLegend, 149008) antibody were used and the images were acquired on Alexa 488 and APC Channel with performed using Operetta CLS and Analysis Software 4.5 (Perkin-Elmer).
(§5) Transgenic mouse lines over-expressing the hAPP695swe (APP) and presenilin-1M146V (PS1) mutations were originated from GlaxoSmithKline (Harlow, UK)[32] and maintained as described previously. We purchased 5×FAD mice from Jackson Labs (Stock number. 34840-JAX). Because APP/PS1 and 5xFAD mice show sex differences in disease progression, we used only male mice. To examine possible therapeutic effect of N-AS and aspirin in APP/PS1 mice, the N-AS (30 mg kg^−1, Sigma-Aldrich, 01912) was injected daily s.c. for 8 weeks to 7-months-old APP/PS1 mice until the age of 9 months, and aspirin (2 mg kg^−1, Sigma-Aldrich, A5376)[33] was administrated orally to 7-months-old APP/PS1 mice for 8 weeks. Also, to confirm possible therapeutic efficacy of N-AS in 5×FAD, the N-AS (30 mg kg^−1, Sigma-Aldrich, 01912) was injected daily s.c. for 4 weeks to 3-months-old 5×FAD mice until the age of 4 months. Block randomization method was used to allocate the animals to experimental groups. To eliminate the bias, we were blinded in experimental progress such as data collection and data analysis. Mice were housed at temperature of 22 °C and a 12 h day/12 h night cycle with free access to tap water and food pellets. All protocols were approved by the Kyungpook National University Institutional Animal Care and Use Committee.

Another test relates to APP/PS1 mice. Nature of the test: immunofluorescence of 6E10, Aβ40 and Aβ42 (Fig 6b-d). Format: in vivo, mouse. The conditions noted are these: for 6E10 immunofluorescence quantification (Figure 6b) / Aβ40 immunofluorescence quantification (Figure 6c) / Aβ42 immunofluorescence quantification (Figure 6d): APP/PS1 + N-AS, individual animals. On the procedure:
as §4, §5

[1] abbreviates: read-out: KM of acetyl-CoA binding to SphK1.

Where “and” joins values, the source holds several entries; their conditions need not be identical. Identical values can stand only once.

T1 sequence (Q9NYA1 whole entry R57A): as the sequence (Q9NYA1 whole entry R185A) above, with R57A, A185R counted along it

As to `CC(=O)SCCNC(=O)CCNC(=O)[C@H](O)C(C)(C)COP(=O)(O)OP(=O)(O)OC[C@H]1O[C@@H](n2cnc3c(N)ncnc32)[C@H](O)[C@@H]1OP(=O)(O)O` [Acetyl-CoA, acetyl-CoA], the results for the “Kcat of acetyl-CoA binding to SphK1” value at SphK1 R57A and on SphK1 R185A were 0.000305 s⁻¹ and 0.000237 s⁻¹, respectively. In addition, the Km (commonly the concentration of substrate that gives half-maximal velocity) at SphK1 R57A (setting [1]) is 15.4 µM; on SphK1 R185A (setting [1]), 22.8 µM.

As for `CCCCCCCCCCCCC/C=C/[C@@H](O)[C@H](CO)NC(C)=O` [N-AS, N-((2S,3R,E)-1,3-Dihydroxyoctadec-4-en-2-yl)acetamide], in the test with 5×FAD mice (5xFAD + N-AS, sFig 8c), the “Aβ plaques by size, <25mM” value is 92.2364 and 92.245 and 94.982 and 89.4908 and 95.585 and 93.6135; the “Aβ plaques by size, >50mM” value was 5.395 and 4.6761 and 5.546 and 5.244 and 3.581 and 5.111. Besides, the “Aβ plaques by size, 25-50mM” value in the test with 5×FAD mice (5xFAD + N-AS, sFig 8c, in % (unit assumed)) is 5.341 and 4.808 and 4.956 and 5.7255 and 3.9859 and 4.882. Moreover, the “Aβ plaque deposit and Aβ plaque phagocytosis” value with 5×FAD mice (5×FAD, N-AS 30 mg kg^-1 daily s.c. 4 weeks) is given as “similarly improved AD pathology of 5×FAD mice”. Moreover, in the test with APP/PS1 mice (Cortex), the “6E10 immunofluorescence quantification (Figure 6b)” value was 0.0608 and 0.09453 and 0.05939 and 0.02037 and 0.005591 and 0.04313 and 0.04886 and 0.06655; the “Aβ40 immunofluorescence quantification (Figure 6c)” value was 0.06419 and 0.04296 and 0.0589 and 0.2298 and 0.117 and 0.122 and 0.04359 and 0.05854; the “Aβ42 immunofluorescence quantification (Figure 6d)” value was 0.1554 and 0.215 and 0.1788 and 0.1001 and 0.1191 and 0.09457 and 0.1824 and 0.177. For the same molecule, in the test on APP/PS1 mice (Hippocampus), the “6E10 immunofluorescence quantification (Figure 6b)” value is 0.04847 and 0.07321 and 0.02799 and 0.04609 and 0.00742 and 0.009448 and 0.05438 and 0.09253; the “Aβ40 immunofluorescence quantification (Figure 6c)” value was 0.07041 and 0.04924 and 0.02685 and 0.04786 and 0.1308 and 0.07762 and 0.09677 and 0.1893 and 0.1045; the “Aβ42 immunofluorescence quantification (Figure 6d)” value is 0.2679 and 0.3316 and 0.148 and 0.1454 and 0.2815 and 0.3706 and 0.09586 and 0.279 and 0.395. The “Aβ levels by immunofluorescence of 6E10, Aβ40, Aβ42” value with APP/PS1 mice (N-AS vs vehicle APP/PS1) is on record as “significantly lower Aβ levels”.
